According to paper PMC6269562, “Design, Synthesis and Biological Evaluation of New Imidazo[2,1-b]Thiazole Derivatives as Selective COX-2 Inhibitors” (Iranian Journal of Pharmaceutical Research : IJPR, 2018):
Where two headings read alike, the source gives them in different places.

Tests used:
COX-2 [1] = conditions: cited from earlier work
COX-1 = conditions: read-out: IC50 Whole cell COX-1; cited from earlier work
COX-2 [2] = conditions: read-out: COX-2 IC50; cited from earlier work
ovine COX-1 = biological target: T1, ovine COX-1 (Ovis aries, UniProt P05979); test: biochemical; conditions: ovine COX-1/COX-2 assay kit, means of two determinations
T1 construct: purchased Cayman chemical, MI, USA
T1 sequence (P05979 25-600): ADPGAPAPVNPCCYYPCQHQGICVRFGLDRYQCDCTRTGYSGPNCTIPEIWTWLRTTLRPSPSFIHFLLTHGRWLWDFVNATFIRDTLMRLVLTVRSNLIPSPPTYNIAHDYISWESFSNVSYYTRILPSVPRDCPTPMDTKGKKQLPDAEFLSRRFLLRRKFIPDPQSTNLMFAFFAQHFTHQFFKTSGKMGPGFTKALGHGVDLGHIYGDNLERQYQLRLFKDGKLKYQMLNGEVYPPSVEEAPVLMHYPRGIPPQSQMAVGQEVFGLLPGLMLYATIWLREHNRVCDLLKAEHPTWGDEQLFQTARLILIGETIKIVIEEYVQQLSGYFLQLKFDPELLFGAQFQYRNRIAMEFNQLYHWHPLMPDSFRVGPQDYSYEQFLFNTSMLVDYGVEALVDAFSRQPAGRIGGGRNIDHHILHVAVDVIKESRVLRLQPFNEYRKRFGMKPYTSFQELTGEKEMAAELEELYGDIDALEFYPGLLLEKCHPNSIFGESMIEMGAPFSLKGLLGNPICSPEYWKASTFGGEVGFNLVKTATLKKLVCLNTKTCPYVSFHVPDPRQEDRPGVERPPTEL
From the text: (§1) In-vitro cyclooxygenase (COX) inhibition assay
(§2) Enzyme chemiluminescent kit (Cayman chemical, MI, USA) was used to evaluate inhibition activities of synthesized compounds based on our previous reported procedure ([34]). The Cayman chemical chemiluminescent COX (ovine) inhibitor screening assay employs the heme-catalyzed hydroperoxidase activity of ovine cyclooxygenases to produce luminescence in the presence of a cyclic naphthalene hydrazide and the substrate arachidonic acid.

ovine COX-2 = biological target: T2, ovine COX-2 (Ovis aries, UniProt P79208); test: biochemical; conditions: for IC50: ovine COX-1/COX-2 assay kit, means of two determinations; for Selectivity index (SI): COX-1 IC50/COX-2 IC50
T2 construct: purchased Cayman chemical, MI, USA
T2 sequence (P79208 17-603): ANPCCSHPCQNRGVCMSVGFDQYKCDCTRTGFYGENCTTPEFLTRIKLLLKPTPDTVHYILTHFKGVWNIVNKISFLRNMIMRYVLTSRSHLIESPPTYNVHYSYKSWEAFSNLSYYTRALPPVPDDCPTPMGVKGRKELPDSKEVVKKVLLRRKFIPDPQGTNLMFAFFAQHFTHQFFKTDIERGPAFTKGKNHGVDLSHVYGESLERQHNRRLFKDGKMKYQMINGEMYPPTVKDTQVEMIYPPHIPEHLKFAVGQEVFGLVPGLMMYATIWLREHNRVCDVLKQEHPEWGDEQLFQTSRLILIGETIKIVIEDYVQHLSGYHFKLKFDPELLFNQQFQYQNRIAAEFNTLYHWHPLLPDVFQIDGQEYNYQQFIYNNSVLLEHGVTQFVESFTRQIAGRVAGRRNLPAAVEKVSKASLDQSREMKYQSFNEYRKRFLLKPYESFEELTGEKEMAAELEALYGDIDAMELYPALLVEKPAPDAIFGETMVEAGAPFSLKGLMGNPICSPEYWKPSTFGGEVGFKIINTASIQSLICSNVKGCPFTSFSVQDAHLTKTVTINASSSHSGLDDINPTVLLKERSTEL
From the text: as §1, §2

| SMILES | IC50 (ovine COX-1) [nM] | IC50 (ovine COX-2) [nM] | melting point [°C] | Selectivity index (SI) (ovine COX-2) | other results |
| --- | --- | --- | --- | --- | --- |
| CS(=O)(=O)c1ccc(-c2nc3ccccn3c2CN2CCOCC2)cc1 [2-(4-(methylsulfonyl)phenyl)-3-(morpholinomethyl)H-imidazo[1,2-a]pyridine] |  |  |  |  | SI (COX-2 [1]; COX-2 selectivity index): 217.1; IC50 (COX-2 [1]; read-out: IC50 (COX-2 inhibition)): 70 nM |
| Cc1cnc2c(-c3ccc(F)cc3)c(-c3ccc(S(C)(=O)=O)cc3)nn2c1C [3-(4-fluorophenyl)-6,7-dimethyl-2-(4-(methylsulfonyl)phenyl)pyrazolo[1,5-a]pyrimidine] |  |  |  |  | IC50 (COX-1): > 10000 nM |
| COc1ccc2[nH]c(-c3ccc(S(C)(=O)=O)cc3)cc2c1 [5-methoxy-2-(4-(methylsulfonyl)phenyl)-1H-indole] |  |  |  |  | IC50 (COX-2 [2]): 80 nM |
| CN(C)Cc1c(-c2ccc(S(C)(=O)=O)cc2)nc2sccn12 [Compound 6a, N,N-Dimethyl-1-(6-(4-(methylsulfonyl)phenyl)imidazo[2,1-b]thiazol-5-yl)methanamine] | > 100000 | 80 | 123 to 124 |  |  |

The next lines start with results.

| IC50 (ovine COX-1) [nM] | IC50 (ovine COX-2) [nM] | melting point [°C] | Selectivity index (SI) (ovine COX-2) | SMILES | other results |
| --- | --- | --- | --- | --- | --- |
| 48500 | 120 | 132 to 135 | 404.1 | CCN(CC)Cc1c(-c2ccc(S(C)(=O)=O)cc2)nc2sccn12 [Compound 6b, N-Ethyl-N-((6-(4-(methylsulfonyl)phenyl)imidazo[2,1-b]thiazol-5-yl)methyl)ethanamine] |  |
|  |  | 165 to 167 |  | CCCN(CCC)Cc1c(-c2ccc(S(C)(=O)=O)cc2)nc2sccn12 [Compound 6c, N-((6-(4-(Methylsulfonyl)phenyl)imidazo[2,1-b]thiazol-5-yl)methyl)-N-propylpropan-1-amine] |  |
| 12100 | 90 | 144 to 146 | 134.4 | CS(=O)(=O)c1ccc(-c2nc3sccn3c2CN2CCCC2)cc1 [Compound 6d, 6-(4-(Methylsulfonyl)phenyl)-5-(pyrrolidin-1-ylmethyl)imidazo[2,1-b]thiazole] |  |
| 50100 | 160 | 142.6 to 144 | 313.1 | CS(=O)(=O)c1ccc(-c2nc3sccn3c2CN2CCCCC2)cc1 [Compound 6e, 6-(4-(Methylsulfonyl)phenyl)-5-(piperidin-1-ylmethyl)imidazo[2,1-b]thiazole] |  |
| 55100 | 100 | 203 to 206 | 551.0 | CS(=O)(=O)c1ccc(-c2nc3sccn3c2CN2CCOCC2)cc1 [Compound 6f, 4-((6-(4-(Methylsulfonyl)phenyl)imidazo[2,1-b]thiazol-5-yl)methyl)morpholine] |  |
| > 100000 | 110 | 168.8 to 170 |  | CS(=O)(=O)c1ccc(-c2nc3sccn3c2CN(CCO)CCO)cc1 [Compound 6g, 2,2′-(((6-(4-(Methylsulfonyl)phenyl)imidazo[2,1-b]thiazol-5-yl)methyl)azanediyl)bis(ethan-1-ol)] |  |
